Assays:
[1] = tested on: Canine thyroid adenocarcinoma cells; test: NK cell cytotoxicity, dogs; assay type: in vivo, Beagle dogs
Method: Canine thyroid adenocarcinoma cells were used as target cells in assessing NK cell cytotoxic activity. This cell line was previously shown to be susceptible to killing by canine NK cell. Target cells were cultured in a T75 flask with 20 mL minimum essential medium (MEM; Sigma Chem. Co., St. Louis, Mo.) supplemented with 10% fetal calf serum (FC S), 100 U/mL of penicillin and 100 μg/mL of streptomycin. When confluent, target cells were trypsinized, washed 3 times and resuspended to 5×10^5 cells/mL in complete medium (RPMI-1640+10% FCS+100 U/mL of penicillin+100 μ/mL of streptomycin). Triplicate 100 μL aliquots of the target cells were pipetted into 96-well U-bottom plates (Costar, Cambridge, Mass.) and incubated for 8 hours to allow cell adherence. Lymphocytes (effector cells; 100 μL) isolated by percoll separation (as described above) were then added to the target cells to provide an effector:target cell (E:T) ratio of 10:1. After 10 hours of incubation at 37° C., 20 μl of a substrate containing 5 μg of 3-(4,5-dimethylthiazol-2-yl)-2,5-diphenyltetrazolium bromide (MTT) was added. […] Optical density was measured at 570 nm using a microplate reader. The percentage of NK cell-specific lysis was calculated as follows: Specific cytotoxicity (%)=100×{1−[(OD of target cells and effector cells−OD of effector cells)/(OD of target cells)]}

[2] = tested on: peripheral blood mononuclear cells (PBMC); test: Peripheral blood mononuclear cell proliferation, whole blood, cats; assay type: in vivo, Tabby cats
Method: Whole blood was used to analyze the mitogenic proliferative responsiveness of peripheral blood mononuclear cells (PBMC) to phytohemagglutinin (PHA), Con A and pokeweed mitogen (PWM) in order to mimic in vivo conditions. Heparinized whole blood was diluted 1:12 with RPMI-1640 containing 25 mM of Hepes, penicillin (100 U/mL) and streptomycin (100 μg/mL) (Sigma, St. Louis, Mo.) (hereafter termed complete medium). […] The mitogens were used at the following final concentrations previously determined to provide both maximal (the higher mitogen concentration) and suboptimal (the lower mitogen concentration) proliferation: PHA (1.25 and 0.25 μg/mL), Con A (2.5 and 0.5 μg/mL) or PWM (0.125 and 0.025 μg/mL). Tritiated thymidine uptake was measured by liquid scintillation and PBMC proliferation response was expressed as cpm of stimulated cultures corrected for cpm of unstimulated cultures.

[3] = tested on: Crandell feline kidney fibroblast; test: NK cytotoxicity assay, cats; assay type: in vivo, Tabby cats
Method: The Crandell feline kidney fibroblast was used as the target cell. Target cells were resuspended to 2×10^5 cells/mL and triplicate 100 μL aliquots were pipetted into a 96-well U-bottom plate (Costar, Cambridge, Mass.) and cells allowed to adhere. Isolated PBMC (effector cells) were then added to the target cells to achieve effector:target cell (E:T) ratios of 25:1, 12.5:1 and 6.25:1. The cell mixture was incubated for 8 hours after which 100 μL Rose Bengal (2.5 g/L in PBS; Sigma, St. Louis, Mo.) were added and incubated at room temperature for 5 minutes. Optical density was measured at 550 nm using an ELISA plate reader. The percentage of NK-specific lysis was calculated as follows:
Specific cytotoxicity (%)=100×{1−[(OD of target cells and effector cells−OD of effector cells)/(OD of target cells)]}

IL-2 = IL-2 production in Con A-stimulated whole blood cultures, cats; assay type: in vivo, Tabby cats
Method: Whole blood was diluted 1:2 in RPMI-1640 complete medium and cultured for 48 hours in the presence of 5 μg/mL Con A. The conditioned medium was removed and frozen at −80° C. The IL-2 concentrations were determined in duplicate by ELISA using a human IL-2 kit (Intergen, Purchase, N.Y). The human anti-IL-2 was previously determined to cross-react with feline IL-2.

dogs = test: Delayed type hypersensitivity (skin induration) response in dogs; assay type: in vivo, Beagle dogs; conditions: for DTH response to PHA / DTH response to vaccine: dogs
Method: Skin induration response was assessed in all dogs on weeks 0, 6, and 12. Dogs were injected intradermally in the flank area with saline (8.5 g/L; control), an attenuated polyvalent vaccine containing canine distemper virus, canine adenovirus type-2, canine parainfluenza virus and parvovirus (Vanguard 5, Smithkline Beacham, West Chester, Pa.; specific antigen), and PHA (0.5 g/L; nonspecific antigen). The doses of vaccine and PHA used were previously determined to provide optimal skin response in Beagle dogs of similar age. The injection site was clipped and wiped with 70% ethyl alcohol. The injection volume was 100 μL. Skin induration was measured at 0, 24, 48 and 72 h post-injection with the aid of a pressure-sensitive digital micrometer (Mitsutoyo, Tokyo, Japan) and response was expressed as a percentage of skin thickness measured at 0 h.

cats = test: Delayed type hypersensitivity (DTH) response in cats; assay type: in vivo, Tabby cats; conditions: for DTH response to vaccine: week 6, 72 h post-injection

CC1=C[C@H](O)CC(C)(C)[C@H]1/C=C/C(C)=C/C=C/C(C)=C/C=C/C=C(C)/C=C/C=C(C)/C=C/C1=C(C)C[C@@H](O)CC1(C)C [lutein]
Effect on NK cell cytotoxic activity [1]: did not significantly influence
Specific lysis of target cells by PBMC, average ([1]; across all treatments and sampling periods, E:T 10:1): 49.1±1.1%
Spontaneous proliferation by unstimulated PBMC ([2]; cats): did not significantly influence
PWM-stimulated PBMC proliferation (increased) ([2]; cats fed 1 mg lutein, week 4, 0.025 μg/mL PWM): differences were significant
PBMC proliferative response to Con A ([2]; cats fed 10 mg lutein, Con A 2.5 μg/mL, week 4): significantly higher
PWM-stimulated PBMC proliferation (increased) ([2]; cats fed 1 and 10 mg lutein, week 4, 0.125 μg/mL PWM): differences were significant
Tritiated thymidine uptake, average ([2]; cats, 0.25 μg/mL PHA): 1,934±147 cpm
Tritiated thymidine uptake, average ([2]; cats, 1.25 μg/mL PHA): 6,464±504 cpm
PBMC proliferative response to Con A ([2]; cats, Con A 2.5 μg/mL, week 8 and 12): treatment differences were not observed
PBMC proliferative response to Con A ([2]; cats, suboptimal dose (0.5 μg/mL) of Con A): No significant treatment difference
PHA-induced PBMC proliferation ([2]; cats, throughout the study): no significant dietary effects
Spontaneous proliferation by unstimulated PBMC, average ([2]; cats, throughout the study): 1,744±147 cpm
NK cell cytotoxicity ([3]; cats fed 1 mg lutein, week 12 (E:T of 6.25:1) and 8 (E:T of 25:1)): significantly higher
NK cell cytotoxic activity ([3]; cats fed 10 mg lutein, week 8, significant with E:T ratios of 6.25:1 and 25:1): higher
NK cell cytotoxicity ([3]; cats, E:T ratio of 12.5:1): No significant treatment differences
IL-2 production (IL-2; throughout the experimental period): no significant differences
Average concentration of IL-2 in Con A-stimulated cultures (IL-2; throughout the study): 15.1 ± 0.79 ng/mL
DTH response to PHA vs unsupplemented dogs (dogs; dogs fed 20 mg lutein, week 12): significantly higher
DTH response to PHA (dogs; week 6, 48 and 72 h): no significant treatment difference
DTH response to vaccine (dogs; week 6, 48 and 72 h post-injection): dose-related
DTH response to vaccine (dogs; week 6, 24 h): not significant
DTH response to PHA (dogs; week 6, 24 h post-injection): dose-related
DTH response to vaccine (dogs; week 12): no significant dietary effect
DTH response to PHA (dogs; week 12, 24, 48 and 72 h, all doses): general dose-dependent increase
DTH response to vaccine (cats; cats fed 5 or 10 mg lutein): significantly higher
DTH response to Con A (cats; cats, week 6): no significant dietary effect
DTH response to vaccine (cats; cats, all doses): significant dose-related
DTH response to Con A and vaccine (cats; cats, week 12): no significant treatment difference

From patent US20010006673A1, “LUTEIN- CONTAINING SUPPLEMENT AND PROCESS FOR ENHANCING IMMUNE RESPONSE IN ANIMALS” (priority 1998, published 2001)
